From patent US11623919B2, “Heterocyclic P2X7 antagonists” (AXXAM S.P.A., priority 2017, dated 2023)

Columns and labels:
Type in all cases: cell-based
P2X7 receptor [1] = biological target: T1, P2X7 receptor (Mus musculus, UniProt Q9Z1M0); experiment: Screen Quest Fluo-8 No Wash Calcium Assay (Bz-ATP evoked Ca2+ influx, FLIPR); conditions: mP2X7; HEK-293 cells stably transfected with P2X7 receptor, Bz-ATP at EC80, Fluo-8 NW; potency ranges A-D
T1 construct: mP2X7 (IC50; nM); other: mP2X7; HEK-293 cells stably transfected with P2X7 receptor, Bz-ATP at EC80, Fluo-8 NW; potency
T1 sequence (Q9Z1M0 1-595): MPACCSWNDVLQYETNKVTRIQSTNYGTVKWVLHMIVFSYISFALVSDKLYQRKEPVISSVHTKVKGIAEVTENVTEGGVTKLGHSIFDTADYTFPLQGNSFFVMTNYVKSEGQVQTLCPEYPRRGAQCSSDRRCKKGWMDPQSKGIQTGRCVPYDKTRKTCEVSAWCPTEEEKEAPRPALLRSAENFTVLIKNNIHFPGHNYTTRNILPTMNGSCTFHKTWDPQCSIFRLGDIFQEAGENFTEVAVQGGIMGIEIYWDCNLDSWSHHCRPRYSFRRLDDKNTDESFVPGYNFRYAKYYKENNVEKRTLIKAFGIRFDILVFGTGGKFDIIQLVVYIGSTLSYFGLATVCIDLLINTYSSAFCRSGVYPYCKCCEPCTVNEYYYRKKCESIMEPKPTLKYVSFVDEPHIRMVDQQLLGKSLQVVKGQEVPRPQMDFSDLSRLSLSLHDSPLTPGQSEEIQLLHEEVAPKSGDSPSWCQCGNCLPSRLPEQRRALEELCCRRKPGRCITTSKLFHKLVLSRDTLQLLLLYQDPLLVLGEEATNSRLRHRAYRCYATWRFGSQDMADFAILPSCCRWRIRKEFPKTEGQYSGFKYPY
Summary of the method: (§1)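 HEK-293 cells stably expressing P2X7 were loaded with Fluo-8 NW for 1 h at RT, then given compound, and 5 min later Bz-ATP at EC80. Fluorescence was read by FLIPR in low divalent cation buffer (0.3 mM Ca2+, 0 mM Mg2+). IC50 came from percent inhibition relative to reference antagonist A438079.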

P2X7 receptor [2] = biological target: T2, P2X7 receptor (Homo sapiens, UniProt Q99572); experiment: Automated patch-clamp (QPatch16X) P2X7 channel assay; set-up: expressed in transfected cells; host or cells: HEK-293; conditions: HEK-293 cells expressing P2X7 channels; whole-cell, held at -80 mV; 100 microM BzATP; compound 1, 10, 100 and 1000 nM; read-out: Q-Patch (IC50)
T2 sequence (Q99572 1-595): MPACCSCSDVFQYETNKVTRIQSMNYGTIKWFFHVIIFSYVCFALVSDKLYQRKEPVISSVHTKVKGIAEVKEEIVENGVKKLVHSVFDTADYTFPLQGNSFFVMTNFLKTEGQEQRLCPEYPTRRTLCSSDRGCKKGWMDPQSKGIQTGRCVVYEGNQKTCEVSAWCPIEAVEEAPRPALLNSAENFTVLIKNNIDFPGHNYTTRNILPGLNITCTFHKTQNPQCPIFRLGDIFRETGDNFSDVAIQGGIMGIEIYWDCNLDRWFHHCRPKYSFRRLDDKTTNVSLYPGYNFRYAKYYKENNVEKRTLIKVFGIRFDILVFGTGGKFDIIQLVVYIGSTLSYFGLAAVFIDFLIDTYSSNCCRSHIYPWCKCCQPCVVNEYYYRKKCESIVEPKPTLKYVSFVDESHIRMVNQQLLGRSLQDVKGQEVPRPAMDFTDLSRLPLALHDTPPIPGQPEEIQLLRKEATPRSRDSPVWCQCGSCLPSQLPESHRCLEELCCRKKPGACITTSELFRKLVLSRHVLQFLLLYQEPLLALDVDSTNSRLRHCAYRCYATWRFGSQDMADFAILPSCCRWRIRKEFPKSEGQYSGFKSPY
Description: In order to directly monitor the block of P2X7 channel, an electrophysiological assay was developed and implemented on the QPatch16X automated electrophysiology instrument.
HEK-293 cells expressing the P2X7 channels were cultured in modified EMEM.
72 hours before experiment, 5 million cells were seeded onto T225 flasks. Just before the experiment cells were washed twice, detached from the flask with trypsin-EDTA, re-suspended in the suspension solution and placed on the QPatch 16x.
The compounds (20 mM in a 100% DMSO) stored at −20° C. were prepared the day of the experiment (a first dilution 1:20 in 100% DMSO to prepare a 1 mM stock solution, then a 1 microM solution in external solution+a serial dilution 1:10).
The standard whole-cell voltage clamp experiments were performed at room temperature. From these experiments the multihole technology was used and the data were sampled at 2 KHz.
The intracellular solution contained (mM) 135 CsF, 10 NaCl, 1 EGTA, 10 HEPES, (pH 7.2 with CsOH) whereas the extracellular contained (mM) 145 NaCl, 4 KCl, 0.5 MgCl2, 1 CaCl2, 10 HEPES, 10 Glc (pH 7.4 with NaOH).
After establishment of the seal and the passage in the whole cell configuration, the cells were held at −80 mV. The P2XR7 current was evoked by applying 100 microM of BzATP alone (4 times) and then in the presence increasing concentrations of the compound under investigation (1, 10, 100 and 1000 nM).
The pre-incubation periods 5 to 8 contain increasing concentrations of the compound of interest (1, 10, 100 and 1000 nM), as illustrated in FIGURE (application protocol).
The maximal inward current evoked by BzATP in absence or presence of increasing concentrations of the compounds under investigation was measured and normalized. The potential […] effect was measured as % of control and as IC50 determined fitting the dose-response curves data with the following equation: Y=100/(1+10^((Log IC50−X)*HillSlope))

P2X7 receptor [3] = biological target: T2, P2X7 receptor; experiment: Screen Quest Fluo-8 No Wash Calcium Assay (Bz-ATP evoked Ca2+ influx, FLIPR); set-up: hP2X7 (IC50; nM); other: hP2X7; HEK-293 cells stably transfected with P2X7 receptor, Bz-ATP at EC80, Fluo-8 NW; potency; conditions: hP2X7; HEK-293 cells stably transfected with P2X7 receptor, Bz-ATP at EC80, Fluo-8 NW; potency ranges A-D
Summary of the method: as §1

O=c1onc(Cc2c(F)cccc2Cl)n1CC1(F)CCCCC1 [Example 96, 3-[(2-chloro-6-fluorophenyl)methyl]-4-[(1-fluorocyclohexyl)methyl]-4,5-dihydro-1,2,4-oxadiazol-5-one]
IC50 (P2X7 receptor [1]): 200 to 1000 nM | IC50 (P2X7 receptor [2]): 245 nM | IC50 (P2X7 receptor [3]): 200 to 1000 nM

O=c1onc(Cc2c(F)cccc2Cl)n1CCC1CCCCC1 [Example 142, 3-(2-chloro-6-fluorobenzyl)-4-(2-cyclohexylethyl)-1,2,4-oxadiazol-5(4H)-one]
IC50 (P2X7 receptor [1]): 200 to 1000 nM | IC50 (P2X7 receptor [2]): 153 nM | IC50 (P2X7 receptor [3]): 200 to 1000 nM

O=c1onc(Cc2c(F)cccc2Cl)n1CC1CCCCO1 (stereo not drawn) [Example 94, 3-[(2-chloro-6-fluorophenyl)methyl]-4-(oxan-2-ylmethyl)-4,5-dihydro-1,2,4-oxadiazol-5-one]
IC50 (P2X7 receptor [1]): 1000 to 10000 nM | IC50 (P2X7 receptor [2]): 332 nM | IC50 (P2X7 receptor [3]): 200 to 1000 nM

O=c1onc(Cc2c(F)cccc2Cl)n1Cc1ccc(C(F)(F)F)o1 [Example 66, 3-[(2-chloro-6-fluorophenyl)methyl]-4-{[5-(trifluoromethyl)furan-2-yl]methyl}-4,5-dihydro-1,2,4-oxadiazol-5-one]
IC50 (P2X7 receptor [1]): 1000 to 10000 nM | IC50 (P2X7 receptor [2]): 1500 nM | IC50 (P2X7 receptor [3]): 200 to 1000 nM

Cc1noc(C)c1Cc1noc(=O)n1CC1CCCCC1 [Example 210, 4-(cyclohexylmethyl)-3-[(dimethyl-1,2-oxazol-4-yl)methyl]-4,5-dihydro-1,2,4-oxadiazol-5-one]
IC50 (P2X7 receptor [1]): 1000 to 10000 nM | IC50 (P2X7 receptor [2]): 149 nM | IC50 (P2X7 receptor [3]): 200 to 1000 nM

O=c1onc(Cc2ccc(F)cc2)n1Cc1c(F)cccc1Cl [Example 1, 4-[(2-chloro-6-fluorophenyl)methyl]-3-[(4-fluorophenyl)methyl]-4,5-dihydro-1,2,4-oxadiazol-5-one]
IC50 (P2X7 receptor [1]): 1000 to 10000 nM | IC50 (P2X7 receptor [2]): 247 nM | IC50 (P2X7 receptor [3]): 200 to 1000 nM

O=c1onc(Cc2c(F)cccc2Cl)n1CC1CCC(F)(F)C1 (single isomer, unassigned) [Example 149, 3-(2-chloro-6-fluorobenzyl)-4-[(3,3-difluorocyclopentyl)methyl]-1,2,4-oxadiazol-5(4H)-one]
IC50 (P2X7 receptor [1]): 200 to 1000 nM | IC50 (P2X7 receptor [2]): 68.6 nM | IC50 (P2X7 receptor [3]): < 200 nM

CC1(C)CCC(Cn2c(Cc3c(F)cccc3Cl)noc2=O)CC1 [Example 86, 3-[(2-chloro-6-fluorophenyl)methyl]-4-[(4,4-dimethylcyclohexyl)methyl]-4,5-dihydro-1,2,4-oxadiazol-5-one]
IC50 (P2X7 receptor [1]): 200 to 1000 nM | IC50 (P2X7 receptor [2]): 154 nM | IC50 (P2X7 receptor [3]): 200 to 1000 nM

O=c1onc(Cc2ccccc2Cl)n1CC1CCCCC1 [Example 117, 3-[(2-chlorophenyl)methyl]-4-(cyclohexylmethyl)-4,5-dihydro-1,2,4-oxadiazol-5-one]
IC50 (P2X7 receptor [1]): 200 to 1000 nM | IC50 (P2X7 receptor [2]): 94.9 nM | IC50 (P2X7 receptor [3]): 200 to 1000 nM

O=c1onc(Cc2cccc(F)c2)n1Cc1c(F)cccc1Cl [Example 81, 4-[(2-chloro-6-fluorophenyl)methyl]-3-[(3-fluorophenyl)methyl]-4,5-dihydro-1,2,4-oxadiazol-5-one]
IC50 (P2X7 receptor [1]): 1000 to 10000 nM | IC50 (P2X7 receptor [2]): 292 nM | IC50 (P2X7 receptor [3]): 200 to 1000 nM

O=c1onc(Cc2ccccc2Cl)n1Cc1ccc(F)cc1 [Example 76, 3-[(2-chlorophenyl)methyl]-4-[(4-fluorophenyl)methyl]-4,5-dihydro-1,2,4-oxadiazol-5-one]
IC50 (P2X7 receptor [1]): 1000 to 10000 nM | IC50 (P2X7 receptor [2]): 401 nM | IC50 (P2X7 receptor [3]): 200 to 1000 nM

O=c1onc(Cc2c(F)cccc2Cl)n1Cc1ccc(F)cc1Cl [Example 60, 4-[(2-chloro-4-fluorophenyl)methyl]-3-[(2-chloro-6-fluorophenyl)methyl]-4,5-dihydro-1,2,4-oxadiazol-5-one]
IC50 (P2X7 receptor [1]): 1000 to 10000 nM | IC50 (P2X7 receptor [2]): 623 nM | IC50 (P2X7 receptor [3]): 200 to 1000 nM

O=c1snc(Cc2c(F)cccc2Cl)n1CC1CCC(F)(F)CC1 [Example 141, 3-[(2-chloro-6-fluorophenyl)methyl]-4-[(4,4-difluorocyclohexyl)methyl]-4,5-dihydro-1,2,4-thiadiazol-5-one]
IC50 (P2X7 receptor [1]): < 200 nM | IC50 (P2X7 receptor [2]): 3.04 nM | IC50 (P2X7 receptor [3]): < 200 nM

O=c1onc(Cc2c(F)cccc2Cl)n1CC1CC2CCC1C2 (stereo not drawn) [Example 88, 4-{bicyclo[2.2.1]heptan-2-ylmethyl}-3-[(2-chloro-6-fluorophenyl)methyl]-4,5-dihydro-1,2,4-oxadiazol-5-one]
IC50 (P2X7 receptor [1]): 200 to 1000 nM | IC50 (P2X7 receptor [2]): 34.5 nM | IC50 (P2X7 receptor [3]): < 200 nM

Cc1noc(C)c1Cc1noc(=O)n1CC1CCC(F)(F)CC1 [Example 211, 4-[(4,4-difluorocyclohexyl)methyl]-3-[(dimethyl-1,2-oxazol-4-yl)methyl]-4,5-dihydro-1,2,4-oxadiazol-5-one]
IC50 (P2X7 receptor [1]): 1000 to 10000 nM | IC50 (P2X7 receptor [2]): 119 nM | IC50 (P2X7 receptor [3]): < 200 nM

O=c1onc(Cc2c(F)cccc2Cl)n1CC1CCCCC1 [Example 82, 3-[(2-chloro-6-fluorophenyl)methyl]-4-(cyclohexylmethyl)-4,5-dihydro-1,2,4-oxadiazol-5-one]
IC50 (P2X7 receptor [1]): < 200 nM | IC50 (P2X7 receptor [2]): 21.4 nM | IC50 (P2X7 receptor [3]): < 200 nM

O=c1onc(Cc2c(F)cccc2Cl)n1Cc1ccc(F)cc1F [Example 61, 3-[(2-chloro-6-fluorophenyl)methyl]-4-[(2,4-difluorophenyl)methyl]-4,5-dihydro-1,2,4-oxadiazol-5-one]
IC50 (P2X7 receptor [1]): 1000 to 10000 nM | IC50 (P2X7 receptor [2]): 149 nM | IC50 (P2X7 receptor [3]): 200 to 1000 nM

CC1(C)CCCCC1Cn1c(Cc2c(F)cccc2Cl)noc1=O (stereo not drawn) [Example 99, 3-[(2-chloro-6-fluorophenyl)methyl]-4-[(2,2-dimethylcyclohexyl)methyl]-4,5-dihydro-1,2,4-oxadiazol-5-one]
IC50 (P2X7 receptor [1]): 200 to 1000 nM | IC50 (P2X7 receptor [2]): 124 nM | IC50 (P2X7 receptor [3]): 200 to 1000 nM

O=c1onc(Cc2c(F)cccc2Cl)n1Cc1ccc(Cl)cc1 [Example 65, 3-[(2-chloro-6-fluorophenyl)methyl]-4-[(4-chlorophenyl)methyl]-4,5-dihydro-1,2,4-oxadiazol-5-one]
IC50 (P2X7 receptor [1]): 1000 to 10000 nM | IC50 (P2X7 receptor [2]): 348 nM | IC50 (P2X7 receptor [3]): 200 to 1000 nM

O=c1onc(CC2CCCCC2)n1Cc1c(F)cccc1Cl [Example 130, 4-[(2-chloro-6-fluorophenyl)methyl]-3-(cyclohexylmethyl)-4,5-dihydro-1,2,4-oxadiazol-5-one]
IC50 (P2X7 receptor [1]): 200 to 1000 nM | IC50 (P2X7 receptor [2]): 94.8 nM | IC50 (P2X7 receptor [3]): 200 to 1000 nM
